The NIST ThermoML archive (doi:10.1021/je060124c)

Experiment: mn = molality of the nth substance listed, in mol/kg
Conditions: Liquid, Capillary tube (Ostwald / Ubbelohde) method

[Cl-].[Li+] [lithium chloride] + O
viscosity [mPa·s]
Conditions	10000 kPa	20000 kPa	40000 kPa
421.03 K, m1 = 0.1185	–	0.1941	0.199
421.96 K, m1 = 5.897	0.4291	0.435	0.4463
422.4 K, m1 = 1.242	0.2248	0.2281	0.2281
422.51 K, m1 = 10.11	0.7257	0.7354	0.7544
423.8 K, m1 = 12.7	0.9216	0.9345	0.9595
424.5 K, m1 = 16.39	1.333	1.351	1.386
424.51 K, m1 = 7.863	0.5562	0.564	0.5785
424.52 K, m1 = 0.0473	0.1848	0.1879	0.1928
425.84 K, m1 = 2.621	0.2701	0.2739	0.2812
446.9 K, m1 = 12.7	0.7773	0.7897	0.8123
447.18 K, m1 = 5.897	0.3666	0.3725	0.384
448.7 K, m1 = 10.11	0.6126	0.622	0.6415
448.75 K, m1 = 0.1185	0.1599	0.1628	0.1675
449.16 K, m1 = 0.0473	0.1575	0.16	0.1655
449.75 K, m1 = 16.39	1.091	1.108	1.141
449.82 K, m1 = 7.863	0.4786	0.4862	0.5006
450.7 K, m1 = 1.242	0.1876	0.1908	0.1908
450.74 K, m1 = 0.4814	0.1681	0.1707	0.1758
452.54 K, m1 = 2.621	0.2292	0.2329	0.2399
470.42 K, m1 = 1.242	0.1686	0.1717	0.1717
471.5 K, m1 = 5.897	0.322	0.3277	0.3385
471.52 K, m1 = 16.39	0.9346	0.951	0.982
472.03 K, m1 = 0.1185	0.1403	0.143	0.1477
472.3 K, m1 = 7.863	0.4267	0.4344	0.4487
472.52 K, m1 = 12.7	0.6626	0.6742	0.6964
473.7 K, m1 = 0.4814	0.1482	0.1509	0.1559
473.8 K, m1 = 10.11	0.5335	0.543	0.562
474.25 K, m1 = 0.0473	0.137	0.1394	0.1441
476.22 K, m1 = 2.621	0.2026	0.2064	0.2135
494.2 K, m1 = 1.242	0.1501	0.1532	0.1532
497.12 K, m1 = 2.621	0.1843	0.188	0.1951
497.2 K, m1 = 16.39	0.807	0.8237	0.8543
497.3 K, m1 = 0.4814	0.1323	0.135	0.1401
497.3 K, m1 = 7.863	0.3824	0.3901	0.4047
497.83 K, m1 = 0.0473	0.122	0.1245	0.1291
498.45 K, m1 = 0.1185	0.1233	0.1256	0.1303
499.3 K, m1 = 5.897	0.282	0.288	0.2988
499.52 K, m1 = 10.11	0.4719	0.4813	0.5
499.82 K, m1 = 12.7	0.5736	0.5853	0.6075
520.61 K, m1 = 1.242	0.1336	0.137	0.137
520.7 K, m1 = 7.863	0.3496	0.358	0.3733
521.37 K, m1 = 0.1185	0.111	0.1137	0.1187
521.42 K, m1 = 0.4814	0.119	0.1219	0.1271
522.35 K, m1 = 0.0473	0.1093	0.1125	0.1168
522.42 K, m1 = 2.621	0.1665	0.1706	0.1781
522.94 K, m1 = 10.11	0.4262	0.4365	0.4263
523.03 K, m1 = 12.7	0.5136	0.5262	0.5488
523.82 K, m1 = 16.39	0.7062	0.722	0.754
524.86 K, m1 = 5.897	0.2531	0.26	0.2718
545.92 K, m1 = 1.242	0.1203	0.124	0.124
547.5 K, m1 = 0.1185	0.0993	0.1018	0.1076
547.82 K, m1 = 16.39	0.6309	0.648	0.682
548.75 K, m1 = 0.4814	0.106	0.1091	0.1148
548.9 K, m1 = 12.7	0.4554	0.4693	0.494
549.25 K, m1 = 0.0473	0.0974	0.1009	0.106
549.32 K, m1 = 5.897	0.2338	0.2411	0.2537
550.4 K, m1 = 2.621	0.1487	0.1533	0.1615
573.1 K, m1 = 0.1185	0.0885	0.0922	0.0982
573.7 K, m1 = 5.897	0.2138	0.2229	0.239
573.81 K, m1 = 12.7	0.4053	0.422	0.449
573.86 K, m1 = 2.621	0.1352	0.1409	0.1502
574.03 K, m1 = 0.4814	0.0947	0.0986	0.1051
574.1 K, m1 = 0.0473	0.0871	0.0907	0.0966
574.21 K, m1 = 1.242	0.1064	0.111	0.111
574.23 K, m1 = 16.39	0.555	0.576	0.615
